Values quoted from earlier work as cited in patent US10285987B2, “Device and kit for dosing and dispensing non-liquid medicine” (AmpliPharm Pharmaceuticals, LLC, priority 2017, dated 2019).

Conditions: skin contact

SMILES: Cn1nnc2c(C(N)=O)ncn2c1=O [temozolomide, 3,4-dihydro-3-methyl-4-oxoimidazo [5,1-d]-as-tetrazine-8-carboxamide]
- classification for skin corrosion/irritation and eye irritation: category 2
